Test results: article PMC3328449, “Inhibition of Diacylglycerol–Sensitive TRPC Channels by Synthetic and Natural Steroids” (PLoS ONE, 2012)

Biological target: T1, mTRPC4ß (Mus musculus, UniProt Q9QUQ5)
T1 construct: expressed in transfected cells
T1 sequence (Q9QUQ5 1-890 isoform Q9QUQ5-2): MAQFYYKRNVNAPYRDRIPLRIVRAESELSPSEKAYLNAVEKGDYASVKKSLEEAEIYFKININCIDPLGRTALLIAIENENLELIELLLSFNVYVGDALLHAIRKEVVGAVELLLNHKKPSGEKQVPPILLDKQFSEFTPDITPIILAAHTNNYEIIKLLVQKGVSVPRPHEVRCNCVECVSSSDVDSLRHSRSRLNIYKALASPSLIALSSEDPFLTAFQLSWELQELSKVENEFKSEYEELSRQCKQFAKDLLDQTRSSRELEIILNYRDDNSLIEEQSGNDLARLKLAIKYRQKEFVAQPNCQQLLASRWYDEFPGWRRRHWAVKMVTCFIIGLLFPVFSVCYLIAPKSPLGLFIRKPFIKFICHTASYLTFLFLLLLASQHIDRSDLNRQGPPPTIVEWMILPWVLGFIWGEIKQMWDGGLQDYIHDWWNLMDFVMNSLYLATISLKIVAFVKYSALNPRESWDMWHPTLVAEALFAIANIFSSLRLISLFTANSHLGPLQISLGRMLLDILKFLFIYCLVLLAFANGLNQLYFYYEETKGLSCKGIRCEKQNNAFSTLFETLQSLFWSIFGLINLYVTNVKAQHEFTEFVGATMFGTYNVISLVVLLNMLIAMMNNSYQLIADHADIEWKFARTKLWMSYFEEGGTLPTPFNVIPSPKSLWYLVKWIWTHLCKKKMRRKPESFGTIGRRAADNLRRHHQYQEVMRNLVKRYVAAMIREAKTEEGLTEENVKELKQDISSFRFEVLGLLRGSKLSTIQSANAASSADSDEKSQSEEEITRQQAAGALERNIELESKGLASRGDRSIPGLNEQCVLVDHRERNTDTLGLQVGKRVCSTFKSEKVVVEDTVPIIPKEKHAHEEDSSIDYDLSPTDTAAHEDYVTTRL
Test: Trypsin-induced Ca2+ entry, fluo-4 fluorometric imaging plate reader, TRPC4 HEK-FITR cells
Type: cell-based
Experimental: Cells were grown at 37°C in a humidified atmosphere (5% or 7% CO2) under standard cell culture conditions. Stable human embryonic kidney (HEK) cell lines expressing recombinant mTRPC4ß (GenBank accession number AAC05178); mTRPC5 (GenBank accession number NM_009428) or hTRPC6 (GenBank accession number AF080394) under the control of a tetracycline-inducible promoter were generated using the Flp-In T-Rex (FITR) system (Invitrogen, Karlsruhe, Germany). […]
Cells grown to an almost confluent monolayer on black poly-D-lysine coated 96-well plates (Greiner, Frickenhausen, Germany) were washed with standard extracellular solution (140 mM NaCl, 1 mM MgCl2, 5.4 mM KCl, 2 mM CaCl2, 10 mM HEPES, 10 mM glucose, pH 7.35) and stained (30 min, room temperature) with dye solution (2 µM fluo-4 AM, 0.02% pluronic F127, 0.1% bovine serum albumin in standard extracellular solution). […] Fluo-4 fluorescence was excited at 488 nm with an argon laser and measured using a fluorometric imaging plate reader (Molecular Devices, Sunnyvale, USA). […]
TRPC4- and TRPC5-mediated Ca^2+ influx was stimulated by application of trypsin that activates endogenous Gq-coupled protease activated receptors in HEK cells. […] Compound effects were then calculated from the area under the curve and normalized to the Ca^2+ influx into trypsin-stimulated, non-compound-treated cells. […]

IC50 (TRPC4 HEK-FITR cells, fluo-4, 200 nM trypsin, read-out: IC50, inhibition of trypsin-induced Ca2+ entry via TRPC4): 6.2 µM
Hill slope n, inhibition of TRPC4-mediated Ca2+ entry (fit to Hill model): 1.15
Compound: CC(=O)[C@H]1CC[C@H]2[C@@H]3CCC4=CC(=O)CC[C@]4(C)[C@H]3CC[C@]12C [progesterone]
